In the first test the test system is NCI-H441. The test can be described thus: relative viability (nuclei count vs DMSO), 5 days (fraction); higher = more cells survive. The note with it: first compound 2.53 µM. In outline:
(§1)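 Lung cancer cell lines in 1536-well plates got either a single drug or a fixed anchor-drug dose together with five library-drug doses (not always all listed) in √10 steps, by pin tool, on the day after seeding. Nuclei were counted after 5 days, and relative viability is the treated-to-vehicle ratio of nuclei counts. Values are medians of duplicate plates.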
Turning to `CCCCCCCCCCCC1=C(O)C(=O)C=C(O)C1=O` [Embelin] + CCNC(=O)c1noc(-c2cc(C(C)C)c(O)cc2O)c1-c1ccc(CN2CCOCC2)cc1 [Luminespib] (partner 0.01 µM), the relative viability came out at 0.332.

`CCCCCCCCCCCC1=C(O)C(=O)C=C(O)C1=O` [Embelin] + Cc1nc(Nc2ncc(C(=O)Nc3c(C)cccc3Cl)s2)cc(N2CCN(CCO)CC2)n1 [Dasatinib] (partner 0.075 µM): the relative viability came to 0.686.

`CCCCCCCCCCCC1=C(O)C(=O)C=C(O)C1=O` [Embelin] + COc1cccc2cc(-c3nc([C@H]4CC[C@H](C(=O)O)CC4)n4ncnc(N)c34)[nH]c12 [OSI-027] (partner 0.5 µM): the relative viability worked out at 0.673.

As to `CCCCCCCCCCCC1=C(O)C(=O)C=C(O)C1=O` [Embelin] + Nc1nc2[nH]cc(CCc3ccc(C(=O)N[C@@H](CCC(=O)O)C(=O)O)cc3)c2c(=O)[nH]1 [Pemetrexed] (partner 0.2 µM), the relative viability amounted to 0.301.

Staying with this test, now noted: first compound 8 µM.
Regarding `CCCCCCCCCCCC1=C(O)C(=O)C=C(O)C1=O` [Embelin] + N=C(N)NC(=N)NCCc1ccccc1 [Phenformin] (partner 250 µM), the relative viability amounted to 0.982.

`CCCCCCCCCCCC1=C(O)C(=O)C=C(O)C1=O` [Embelin] + CCNC(=O)c1noc(-c2cc(C(C)C)c(O)cc2O)c1-c1ccc(CN2CCOCC2)cc1 [Luminespib] (partner 0.01 µM) yielded a relative viability of 0.33.

In turn, `CCCCCCCCCCCC1=C(O)C(=O)C=C(O)C1=O` [Embelin] + Cc1nc(Nc2ncc(C(=O)Nc3c(C)cccc3Cl)s2)cc(N2CCN(CCO)CC2)n1 [Dasatinib] (partner 0.075 µM) yielded a relative viability of 0.838.

`CCCCCCCCCCCC1=C(O)C(=O)C=C(O)C1=O` [Embelin] + COc1cccc2cc(-c3nc([C@H]4CC[C@H](C(=O)O)CC4)n4ncnc(N)c34)[nH]c12 [OSI-027] (partner 0.5 µM) came in with a relative viability of 0.647.

`CCCCCCCCCCCC1=C(O)C(=O)C=C(O)C1=O` [Embelin] + Nc1nc2[nH]cc(CCc3ccc(C(=O)N[C@@H](CCC(=O)O)C(=O)O)cc3)c2c(=O)[nH]1 [Pemetrexed] (partner 0.2 µM) came in with a relative viability of 0.274.

Another test concerns NCI-H460. The test is described as above. To be noted: first compound 0.08 µM. In short, it runs like this: as §1
`CCCCCCCCCCCC1=C(O)C(=O)C=C(O)C1=O` [Embelin] + N=C(N)NC(=N)NCCc1ccccc1 [Phenformin] (partner 250 µM) displayed a relative viability of 0.535.

Take `CCCCCCCCCCCC1=C(O)C(=O)C=C(O)C1=O` [Embelin] + CCNC(=O)c1noc(-c2cc(C(C)C)c(O)cc2O)c1-c1ccc(CN2CCOCC2)cc1 [Luminespib] (partner 0.01 µM): the relative viability amounted to 0.0322.

With `CCCCCCCCCCCC1=C(O)C(=O)C=C(O)C1=O` [Embelin] + Cc1nc(Nc2ncc(C(=O)Nc3c(C)cccc3Cl)s2)cc(N2CCN(CCO)CC2)n1 [Dasatinib] (partner 0.075 µM), the relative viability was found to be 0.58.

The compound `CCCCCCCCCCCC1=C(O)C(=O)C=C(O)C1=O` [Embelin] + COc1cccc2cc(-c3nc([C@H]4CC[C@H](C(=O)O)CC4)n4ncnc(N)c34)[nH]c12 [OSI-027] (partner 0.5 µM) registered a relative viability of 0.683.

`CCCCCCCCCCCC1=C(O)C(=O)C=C(O)C1=O` [Embelin] + Nc1nc2[nH]cc(CCc3ccc(C(=O)N[C@@H](CCC(=O)O)C(=O)O)cc3)c2c(=O)[nH]1 [Pemetrexed] (partner 0.2 µM) registered a relative viability of 0.0662.

The test is the same for the next values; noted with them: first compound 0.8 µM.
Take `CCCCCCCCCCCC1=C(O)C(=O)C=C(O)C1=O` [Embelin] + N=C(N)NC(=N)NCCc1ccccc1 [Phenformin] (partner 250 µM): the relative viability was 0.595.

Turning to `CCCCCCCCCCCC1=C(O)C(=O)C=C(O)C1=O` [Embelin] + CCNC(=O)c1noc(-c2cc(C(C)C)c(O)cc2O)c1-c1ccc(CN2CCOCC2)cc1 [Luminespib] (partner 0.01 µM), the relative viability was 0.0396.

On to `CCCCCCCCCCCC1=C(O)C(=O)C=C(O)C1=O` [Embelin] + Cc1nc(Nc2ncc(C(=O)Nc3c(C)cccc3Cl)s2)cc(N2CCN(CCO)CC2)n1 [Dasatinib] (partner 0.075 µM), for which the relative viability is 0.57.

Regarding `CCCCCCCCCCCC1=C(O)C(=O)C=C(O)C1=O` [Embelin] + COc1cccc2cc(-c3nc([C@H]4CC[C@H](C(=O)O)CC4)n4ncnc(N)c34)[nH]c12 [OSI-027] (partner 0.5 µM), the relative viability is 0.88.

Compound `CCCCCCCCCCCC1=C(O)C(=O)C=C(O)C1=O` [Embelin] + Nc1nc2[nH]cc(CCc3ccc(C(=O)N[C@@H](CCC(=O)O)C(=O)O)cc3)c2c(=O)[nH]1 [Pemetrexed] (partner 0.2 µM) displayed a relative viability of 0.072.

The test is the same for the next values; noted with them: first compound 2.53 µM.
`CCCCCCCCCCCC1=C(O)C(=O)C=C(O)C1=O` [Embelin] + N=C(N)NC(=N)NCCc1ccccc1 [Phenformin] (partner 250 µM) showed a relative viability of 0.66.

Take `CCCCCCCCCCCC1=C(O)C(=O)C=C(O)C1=O` [Embelin] + CCNC(=O)c1noc(-c2cc(C(C)C)c(O)cc2O)c1-c1ccc(CN2CCOCC2)cc1 [Luminespib] (partner 0.01 µM): the relative viability was 0.0367.

`CCCCCCCCCCCC1=C(O)C(=O)C=C(O)C1=O` [Embelin] + Cc1nc(Nc2ncc(C(=O)Nc3c(C)cccc3Cl)s2)cc(N2CCN(CCO)CC2)n1 [Dasatinib] (partner 0.075 µM): the relative viability was determined as 0.571.

Regarding `CCCCCCCCCCCC1=C(O)C(=O)C=C(O)C1=O` [Embelin] + COc1cccc2cc(-c3nc([C@H]4CC[C@H](C(=O)O)CC4)n4ncnc(N)c34)[nH]c12 [OSI-027] (partner 0.5 µM), the relative viability came out at 0.958.

Compound `CCCCCCCCCCCC1=C(O)C(=O)C=C(O)C1=O` [Embelin] + Nc1nc2[nH]cc(CCc3ccc(C(=O)N[C@@H](CCC(=O)O)C(=O)O)cc3)c2c(=O)[nH]1 [Pemetrexed] (partner 0.2 µM) gave a relative viability of 0.0629.

The same test, now with this note: first compound 8 µM.
`CCCCCCCCCCCC1=C(O)C(=O)C=C(O)C1=O` [Embelin] + N=C(N)NC(=N)NCCc1ccccc1 [Phenformin] (partner 250 µM) gave a relative viability of 0.256.

As for `CCCCCCCCCCCC1=C(O)C(=O)C=C(O)C1=O` [Embelin] + CCNC(=O)c1noc(-c2cc(C(C)C)c(O)cc2O)c1-c1ccc(CN2CCOCC2)cc1 [Luminespib] (partner 0.01 µM), the relative viability is 0.029.

With `CCCCCCCCCCCC1=C(O)C(=O)C=C(O)C1=O` [Embelin] + Cc1nc(Nc2ncc(C(=O)Nc3c(C)cccc3Cl)s2)cc(N2CCN(CCO)CC2)n1 [Dasatinib] (partner 0.075 µM), the relative viability amounted to 0.416.

Consider `CCCCCCCCCCCC1=C(O)C(=O)C=C(O)C1=O` [Embelin] + COc1cccc2cc(-c3nc([C@H]4CC[C@H](C(=O)O)CC4)n4ncnc(N)c34)[nH]c12 [OSI-027] (partner 0.5 µM), for which the relative viability stood at 0.751.

Take `CCCCCCCCCCCC1=C(O)C(=O)C=C(O)C1=O` [Embelin] + Nc1nc2[nH]cc(CCc3ccc(C(=O)N[C@@H](CCC(=O)O)C(=O)O)cc3)c2c(=O)[nH]1 [Pemetrexed] (partner 0.2 µM): the relative viability turned out to be 0.0617.

Another test relates to NCI-H520. Described as above. The note with it: first compound 0.08 µM. In outline: as §1
Compound `CCCCCCCCCCCC1=C(O)C(=O)C=C(O)C1=O` [Embelin] + N=C(N)NC(=N)NCCc1ccccc1 [Phenformin] (partner 250 µM) came in with a relative viability of 0.632.

The compound `CCCCCCCCCCCC1=C(O)C(=O)C=C(O)C1=O` [Embelin] + CCNC(=O)c1noc(-c2cc(C(C)C)c(O)cc2O)c1-c1ccc(CN2CCOCC2)cc1 [Luminespib] (partner 0.01 µM) displayed a relative viability of 0.224.

Source of the values: the supplement of paper PMC10307832.
